Numbers after ± are expanded uncertainties.
Conditions: Liquid; for mass density: 298.15 K, 101.33 kPa, Vibrating tube method

Row | Structure (SMILES) | mass density | Normal boiling temperature
1 | Cc1ccccc1C [1,2-dimethylbenzene] | 875.81 ± 0.16 kg/m3 | 144.40 ± 0.5 °C
2 | Cc1cccc(C)c1 [1,3-dimethylbenzene] | 860.06 ± 0.16 kg/m3 | 139.13 ± 0.5 °C
3 | Cc1ccc(C)cc1 [1,4-dimethylbenzene] | 856.54 ± 0.16 kg/m3 | 138.28 ± 0.5 °C
4 | CCC(C)CO (stereo not given) [2-methyl-1-butanol] | 814.83 ± 0.17 kg/m3 | 128.76 ± 0.5 °C
5 | CCc1ccccc1 [ethylbenzene] | 862.57 ± 0.16 kg/m3 | 136.16 ± 0.5 °C

From the NIST ThermoML archive (doi:10.1021/je301220s)
